Usually EC50 stands for the midpoint of the concentration-response curve. Low readings indicate higher potency in that assay, high ones lower potency in that assay.

These results are taken from patent US20250059153A1, “BICYCLIC QUINONES, PHARMACEUTICAL COMPOSITIONS, AND THERAPEUTIC APPLICATIONS” (priority 2022, published 2025).

The assay concerns Trypanosoma cruzi trypomastigote. As to the kind of experiment: Antiparasitic activity against Trypanosoma cruzi trypomastigote (viability by mobility under optical microscope). The assay is classed as cell-based. The conditions noted are these: LLC-MK2, trypomastigotes from infected LLCMK2 cells, 1×10^7 parasites/mL, 24 h at 37° C. As for the experimental part:
Antiparasitic Activity Against Trypanosoma cruzi
To evaluate antiparasitic activity against Trypanosoma cruzi trypomastigote, parasites were obtained from the supernatant of infected LLCMK2 cells. Trypomastigote (1×10^7 parasites/mL) was resuspended in DMEM supplemented with 10% FBS. The parasites were incubated in the presence of a compound at 500, 200, 100, 50, 10, 5, 1, 0.5, and 0.25 μM in 96-well plates for 24 h at 37° C. with 5% CO2. After incubation, the viability of the parasites was determined by examining mobility under an optical microscope. See, e.g., Brener, Rev. Inst. Med. Trop. São Paulo. 1962, 4, 389-96.

In the case of `Cc1cc(=O)c2occoc=2c1=O` [Compound A1, 6-methylbenzo[b][1,4]dioxine-5,8-dione], the EC50 amounted to 2300 ± 300 nM.
